Patent US7803818B2, “Amorphous form of 1,2-dihydropyridine compound” (Eisai R&D Management Co., Ltd., priority 2005, dated 2010)

How the values were obtained:
AMPA receptor = conditions: see Patent Document 1 (WO/JP01/96308); cited from earlier work
[1] = Solubility in JP2 fluid after shaking 5 minutes (shake flask method); format: physicochemical; conditions: for Concentration (solubility in JP2 fluid after shaking 5 minutes): JP2 fluid pH 6.8, about 5 mg in 5 mL, shaking 5 minutes at room temperature, filtration, HPLC
Method: Measurement of Solubility in JP2 Fluid after Shaking 5 minutes (Shake Flask Method)
Sample solutions were prepared by placing each sample (about 5 mg) in test tube, adding 5 mL of “2nd fluid” as described in General Tests (disintegration test) of Japanese Pharmacopeia (JP2 fluid: pH 6.8), and shaking 5 minutes at room temperature, followed by filtration. These sample solutions were analyzed using high performance liquid chromatography (HPLC), and calculated the concentration.
HPLC System: LC-10AT System (from Shimadzu Corporation)
Detector: ultraviolet absorptiometer (wavelength: 290 nm)
Column: YMC Pack Pro C18, 4.6 mm I.D.×150 mm (from YMC, Japan)
Column temperature: 35° C.
Auto sampler temperature: 25° C.
A: water/acetonitrile/ammonium acetate (900:100:1, v/v/w)
B: water/acetonitrile/ammonium acetate (100:900:1, v/v/w)
(Isocratic Condition: B Concentration=40%)

| SMILES | antagonistic action against AMPA receptor (AMPA receptor) | solubility in a solution such as JP2 fluid ([1]; JP2 fluid (2nd fluid of Disintegration Test, Japanese pharmacopoeia)) | Concentration (solubility in JP2 fluid after shaking 5 minutes) [1] [µg/mL] |
| --- | --- | --- | --- |
| N#Cc1ccccc1-c1cc(-c2ccccn2)cn(-c2ccccc2)c1=O [compound (1), 3-(2-cyanophenyl)-5-(2-pyridyl)-1-phenyl-1,2-dihydropyridin-2-one] | significant antagonistic action |  |  |
| N#Cc1ccccc1-c1cc(-c2ccccn2)cn(-c2ccccc2)c1=O [Example 1] |  | excellent solubility | 12.5 |
| N#Cc1ccccc1-c1cc(-c2ccccn2)cn(-c2ccccc2)c1=O [Reference Example 1, 3-(2-cyanophenyl)-5-(2-pyridyl)-1-phenyl-1,2-dihydropyridin-2-one, reference compound] |  |  | 4.8 |
